Test results published in patent publication US20260317319A1, “NOVEL ERGOLINES AND METHODS OF TREATING MOOD DISORDERS” (Gilgamesh Pharma Inc., priority 2023, published 2026).
Like-named read-outs stand apart in the source and are kept apart here.

Columns and labels:
in vitro [1] = assay type: in vitro ADME, mouse; settings: MLM (male CD-1) 0.50 mg/mL, NADPH 1 mM, 1 μM compound, pH 7.4, 37° C., 60 min; for microsomal CLint / half-life: mouse, microsomes; for microsomal CLint: read-out: Intrinsic clearance (Clint); for half-life: read-out: half-life (t1/2)
From the text: MLM Stability Pooled MLM from male CD-1 mice (BIOIVT M00501) were used.

5-HT2A receptor [2] = molecular target: T1, 5-HT2A receptor (Homo sapiens, UniProt P28223); test: cell-based; assay type: cell-based; settings: agonist, beta-arrestin recruitment; for Emax: max dose, read-out: 5-HT2A Arrestin % Act @ Max Dose; for EC50: PathHunter, read-out: 5-HT2A Arrestin EC50
T1 sequence (P28223 whole entry, the tested form may be a part): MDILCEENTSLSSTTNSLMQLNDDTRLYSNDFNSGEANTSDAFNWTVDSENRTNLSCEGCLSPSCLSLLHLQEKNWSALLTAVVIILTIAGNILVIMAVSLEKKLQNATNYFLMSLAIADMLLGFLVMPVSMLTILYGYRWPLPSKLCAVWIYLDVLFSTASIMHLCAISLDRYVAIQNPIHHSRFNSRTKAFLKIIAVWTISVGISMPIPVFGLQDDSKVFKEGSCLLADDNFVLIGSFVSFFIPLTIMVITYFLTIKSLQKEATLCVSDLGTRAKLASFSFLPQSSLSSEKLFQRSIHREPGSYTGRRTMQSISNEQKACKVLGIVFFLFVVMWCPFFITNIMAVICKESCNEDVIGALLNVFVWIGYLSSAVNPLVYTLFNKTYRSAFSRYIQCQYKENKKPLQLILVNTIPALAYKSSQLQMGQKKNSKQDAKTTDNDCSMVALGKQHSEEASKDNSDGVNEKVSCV
Procedure: Arrestin Functional Assay at 5-HT2A. Recruitment of beta-arrestin was determined using a PathHunter assay at Eurofins DiscoverX (Fremont, CA) according to their standard protocols. PathHunter GPCR beta-arrestin assays take advantage of DiscoverX's proprietary Enzyme Fragment Complementation technology. The GPCR is fused in frame with a small enzyme donor fragment ProLink™ (PK) and co-expressed in cells stably expressing a fusion protein of beta-arrestin and the larger, N-terminal deletion mutant of beta-galactosidase. Activation of the GPCR (5-HT2A receptor in this case) stimulates binding of beta-arrestin to the PK-tagged GPCR and forces complementation of the two enzyme fragments, resulting in the formation of an active beta-galactosidase enzyme. This interaction leads to an increase in enzyme activity that can be measured using chemiluminescent PathHunter Detection Reagents. Briefly, PathHunter cells expressing 5-HT2A receptors were seeded in a volume of 20 μL into 384-well plates and incubated at 37° C. for the appropriate time prior to testing. […] Plates were then imaged on a microplate reader and the agonist activity was calculated using the following formula: % Activity=100%×(mean RLU of test sample-mean RLU of vehicle control)/(mean MAX control ligand-mean RLU of vehicle control), where RLU=relative light units.

5-HT2B receptor = molecular target: T2, 5-HT2B receptor (Homo sapiens, UniProt P41595); test: cell-based; assay type: cell-based; settings: Ca2+ flux; for Emax: HEK293, agonist, HEK293, max dose, read-out: 5-HT2B % Act @ Max Dose; for EC50: agonist, HEK293
T2 construct: expressed in transfected cells; host or cells: HEK293, stably transfected
T2 sequence (P41595 whole entry): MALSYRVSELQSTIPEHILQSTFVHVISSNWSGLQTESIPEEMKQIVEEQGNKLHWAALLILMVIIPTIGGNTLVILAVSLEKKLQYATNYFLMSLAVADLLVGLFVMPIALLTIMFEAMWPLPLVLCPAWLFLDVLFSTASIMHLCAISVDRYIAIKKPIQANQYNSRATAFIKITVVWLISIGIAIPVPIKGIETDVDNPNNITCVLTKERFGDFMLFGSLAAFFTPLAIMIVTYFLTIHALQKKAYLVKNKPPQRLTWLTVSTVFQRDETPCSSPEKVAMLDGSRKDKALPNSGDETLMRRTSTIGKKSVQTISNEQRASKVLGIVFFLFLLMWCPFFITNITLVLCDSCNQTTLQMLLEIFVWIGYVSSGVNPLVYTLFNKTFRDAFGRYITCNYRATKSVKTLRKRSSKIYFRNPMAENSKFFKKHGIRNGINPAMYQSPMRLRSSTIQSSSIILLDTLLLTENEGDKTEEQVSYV
Procedure, shortened: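 FLIPR Tetra fluorescence read-out of calcium flux after compound addition. Receptor-expressing stable lines were used (HEK293 for 2A/2B; CHO with Gα15 for 1A), dye-loaded with Fluo-4 Direct and 2.5 mM final probenecid, 50 min at 37 °C.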

in vitro [3] = assay type: in vitro ADME, rat; settings: RLM (male Sprague-Dawley) 0.50 mg/mL, NADPH 1 mM, 1 μM compound, pH 7.4, 37° C., 60 min; for microsomal CLint / half-life: rat, microsomes; for microsomal CLint: read-out: Intrinsic clearance (Clint); for half-life: read-out: half-life (t1/2)
From the text: RLM Stability Pooled RLM from male Sprague-Dawley rats (Xenotech R1000) were used.

in vitro [4] = assay type: in vitro ADME, human; settings: HLM 0.50 mg/mL, NADPH 1 mM, 1 μM compound, pH 7.4, 37° C., 60 min; for microsomal CLint / half-life: human, microsomes; for microsomal CLint: read-out: Intrinsic clearance (Clint); for half-life: read-out: half-life (t1/2)
5-HT1A receptor = molecular target: T3, 5-HT1A receptor (Homo sapiens, UniProt P08908); test: cell-based; settings: agonist, Ca2+ flux; for Emax: CHO, CHO cells with Gα15, max dose, read-out: 5-HT1A % Act @ Max Dose; for EC50: CHO cells with Gα15
T3 construct: expressed in transfected cells; host or cells: CHO cells, stably transfected
T3 sequence (P08908 1-422): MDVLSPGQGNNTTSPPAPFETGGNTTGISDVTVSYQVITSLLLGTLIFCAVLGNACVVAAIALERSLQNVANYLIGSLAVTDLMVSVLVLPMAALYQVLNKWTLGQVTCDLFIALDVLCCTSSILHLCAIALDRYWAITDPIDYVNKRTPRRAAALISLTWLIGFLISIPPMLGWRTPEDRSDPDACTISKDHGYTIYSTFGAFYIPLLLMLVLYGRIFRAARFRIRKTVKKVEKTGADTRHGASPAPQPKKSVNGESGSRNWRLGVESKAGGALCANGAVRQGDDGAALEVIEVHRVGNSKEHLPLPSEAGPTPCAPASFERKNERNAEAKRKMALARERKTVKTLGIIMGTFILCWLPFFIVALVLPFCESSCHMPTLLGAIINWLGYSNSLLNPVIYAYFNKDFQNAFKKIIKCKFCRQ
Procedure, shortened: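 Using HEK293 lines for the 5-HT2 subtypes and Gα15-coupled CHO cells for 5-HT1A, compounds were tested as agonists. Fluorescent Ca2+ signal followed dye loading (Fluo-4 Direct, 2.5 mM final probenecid, 50 min, 37 °C).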

5-HT2C receptor = molecular target: T4, 5-HT2C receptor (Homo sapiens, UniProt P28335); test: cell-based; settings: read-out: 5-HT2C % Act @ Max Dose
T4 sequence (P28335 33-458): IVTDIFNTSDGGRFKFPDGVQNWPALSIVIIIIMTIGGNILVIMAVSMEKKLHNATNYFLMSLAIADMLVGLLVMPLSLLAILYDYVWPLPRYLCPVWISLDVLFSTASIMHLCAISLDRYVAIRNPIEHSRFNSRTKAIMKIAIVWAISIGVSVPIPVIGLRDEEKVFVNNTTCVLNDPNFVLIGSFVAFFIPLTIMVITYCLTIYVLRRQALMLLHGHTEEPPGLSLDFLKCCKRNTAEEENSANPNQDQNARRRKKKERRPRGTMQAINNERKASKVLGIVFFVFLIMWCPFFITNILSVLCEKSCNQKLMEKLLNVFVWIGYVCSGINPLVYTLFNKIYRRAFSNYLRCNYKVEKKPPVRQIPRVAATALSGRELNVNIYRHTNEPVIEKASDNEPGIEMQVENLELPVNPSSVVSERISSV

5-HT2A receptor [5] = molecular target: T1, 5-HT2A receptor; test: cell-based; assay type: cell-based; parameters: expressed in transfected cells; host or cells: HEK293, stably transfected; settings: Ca2+ flux; for Emax: HEK293, agonist, HEK293, max dose, read-out: 5-HT2A % Act @ Max Dose; for EC50: agonist, HEK293
Procedure, shortened: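 Cells plated and incubated overnight at 37 °C, 5% CO2; Fluo-4 Direct dye with probenecid (final 2.5 mM) added, 50 min at 37 °C; test compounds transferred and Ca2+ signal recorded. HEK293 hosts for 5-HT2A/2B, CHO + Gα15 for 5-HT1A.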

5-HT1B receptor = molecular target: T5, 5-HT1B receptor (Homo sapiens, UniProt P28222); test: cAMP accumulation functional assay at 5-HT1B; assay type: cell-based; settings: agonist, cAMP accumulation; for Emax: max dose, read-out: 5-HT1B % Act @ Max Dose
T5 construct: expressed in transfected cells
T5 sequence (P28222 whole entry): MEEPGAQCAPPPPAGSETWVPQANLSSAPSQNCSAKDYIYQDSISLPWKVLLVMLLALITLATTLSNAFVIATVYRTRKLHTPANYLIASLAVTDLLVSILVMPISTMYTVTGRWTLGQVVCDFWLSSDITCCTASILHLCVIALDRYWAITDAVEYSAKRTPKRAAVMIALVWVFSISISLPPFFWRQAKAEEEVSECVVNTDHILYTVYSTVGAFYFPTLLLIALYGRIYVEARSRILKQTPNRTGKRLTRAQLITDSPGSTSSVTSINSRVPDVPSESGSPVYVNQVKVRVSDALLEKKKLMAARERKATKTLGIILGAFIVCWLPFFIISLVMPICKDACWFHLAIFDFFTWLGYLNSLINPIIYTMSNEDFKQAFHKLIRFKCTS
Procedure, shortened: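 Agonist activity measured as cAMP accumulation in cells stably transfected with human 5-HT1B. Cells incubated 60 min at RT, then detection reagent added for a further 60 min at RT before plate reading.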

5-HT2A receptor [6] = molecular target: T1, 5-HT2A receptor; test: biochemical; assay type: binding; parameters: expressed in transfected cells; host or cells: HEK293, stably transfected; settings: [3H]ketanserin 1 nM; HEK293 stable cell line; 1 h, 25 °C
Procedure, shortened: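 Affinity was measured in radioligand binding experiments using [^3H]ketanserin as the labelled ligand, following methods adapted from published procedures.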

[7] = agonist, Ca2+ flux, Eurofins DiscoverX protocol, max dose

| SMILES | half-life (t1/2) (in vitro [1]) [min] | Emax (5-HT2A receptor [2]) [%] | Emax (5-HT2B receptor) [%] | half-life (t1/2) (in vitro [3]) [min] | half-life (t1/2) (in vitro [4]) [min] | Emax (5-HT1A receptor) [%] | Emax (5-HT2C receptor; [7]) [%] | Emax (5-HT2A receptor [5]) [%] | Emax (5-HT2C receptor) [%] | microsomal CLint (in vitro [1]) [µL/min/mg] | half-life (in vitro [1]) [min] | EC50 (5-HT2B receptor) [nM] | microsomal CLint (in vitro [3]) [µL/min/mg] | half-life (in vitro [3]) [min] | microsomal CLint (in vitro [4]) [µL/min/mg] | half-life (in vitro [4]) [min] | EC50 (5-HT1B receptor) [nM] | Emax (5-HT1B receptor) [%] | Ki (5-HT2A receptor [6]) [nM] | EC50 (5-HT1A receptor) [nM] | further results |
| --- | --- | --- | --- | --- | --- | --- | --- | --- | --- | --- | --- | --- | --- | --- | --- | --- | --- | --- | --- | --- | --- |
| CC[C@@H](C)NC(=O)[C@H]1C=C2c3cccc4[nH]cc(c34)C[C@H]2N(CC)C1 [Compound 5a, (6aR,9S)—N—((R)-sec-butyl)-7-ethyl-4,6,6a,7,8,9-hexahydroindolo[4,3-fg]quinoline-9-carboxamide] | 1.7 | 62.4 | 43.7 | 3.1 | 5.5 | 112 | 99.4 | 89.6 |  |  |  |  |  |  |  |  |  |  |  |  |  |
| CCC(CC)NC(=O)[C@H]1C=C2c3cccc4[nH]cc(c34)C[C@H]2N(C)C1 [Int14a] |  | 44.3 | 1.86 |  |  | 70.3 |  | 33 | 119 |  |  |  |  |  |  |  |  |  |  |  |  |
| CCC[C@@H](C)NC(=O)[C@H]1C=C2c3cccc4[nH]cc(c34)C[C@H]2N(C)C1 [Int17a] |  | 43.7 | 5.63 |  |  | 88.5 |  | 63.3 | 112 |  |  |  |  |  |  |  |  |  |  |  |  |
| CCN(CC)C(=O)[C@H]1C=C2c3cccc4[nH]cc(c34)C[C@H]2N(CCCF)C1 [Compound 2a, (6aR,9S)—N,N-diethyl-7-(3-fluoropropyl)-4,6,6a,7,8,9-hexahydroindolo[4,3-fg]quinoline-9-carboxamide] | 1.776 | 83.3 | 40.1 | 9.673 | 17.018 | 96.8 | 119 | 90.3 |  |  |  |  |  |  |  |  |  |  |  |  |  |
| CCN(CC)C(=O)[C@@H]1C=C2c3cccc4[nH]cc(c34)C[C@H]2N(Cc2ccncc2)C1 [Compound 51, (6aR,9R)—N,N-diethyl-7-(pyridin-4-ylmethyl)-4,6,6a,7,8,9-hexahydroindolo[4,3-fg]quinoline-9-carboxamide] |  |  | 19.3 |  |  | 100 |  | 102 |  | 480 | 2.9 | > 100000 | 73.6 | 18.8 | 34.3 | 40.4 | 190 | 89.1 | 15.6 | 1460 | EC50 (5-HT2A receptor [5]): 97.8 nM |
| CCNC(=O)[C@@H]1C=C2c3cccc4[nH]cc(c34)C[C@H]2N(Cc2cccc(O)c2)C1 [Compound 64, (6aR,9R)—N-ethyl-7-(3-hydroxybenzyl)-4,6,6a,7,8,9-hexahydroindolo[4,3-fg]quinoline-9-carboxamide] |  | 52 | 1.49 |  |  | 87 |  | 75.8 |  | 312 | 4.4 | > 10000 | 222 | 6.2 | 100 | 13.8 | 4520 | 68.8 | 12 | 424 | EC50 (5-HT2A receptor [2]): 23.2 nM; EC50 (5-HT2A receptor [5]): 53.3 nM |
| C=CCN1C[C@@H](C(=O)N[C@H](C)CC)C=C2c3cccc4[nH]cc(c34)C[C@H]21 [Compound 8a, (6aR,9S)-7-allyl-N—((R)-sec-butyl)-4,6,6a,7,8,9-hexahydroindolo[4,3-fg]quinoline-9-carboxamide] | 0.8 | 81.1 | 35.7 | 1.7 | 3.4 | 90.3 | 13.3 | 87.5 |  |  |  |  |  |  |  |  |  |  |  |  |  |
| CCNC(=O)[C@@H]1C=C2c3cccc4[nH]cc(c34)C[C@H]2N(Cc2cccc(OC)c2)C1 [Compound 63, (6aR,9R)—N-ethyl-7-(3-methoxybenzyl)-4,6,6a,7,8,9-hexahydroindolo[4,3-fg]quinoline-9-carboxamide] |  | 64 | -0.31 |  |  | 88.4 |  | 91 |  | 1610 | 0.9 | > 10000 | 645 | 2 | 442 | 3.1 | > 10000 | 45.7 | 11.3 | 6110 | EC50 (5-HT2A receptor [2]): 12.6 nM; EC50 (5-HT2A receptor [5]): 96.9 nM |
| CCCN1C[C@@H](C(=O)N[C@H](C)CC)C=C2c3cccc4[nH]cc(c34)C[C@H]21 [Compound 3a, (6aR,9S)—N—((R)-sec-butyl)-7-propyl-4,6,6a,7,8,9-hexahydroindolo[4,3-fg]quinoline-9-carboxamide] | 0.6 | 113 | 52.8 | 1.4 | 2.2 | 108 | 109 | 92 |  |  |  |  |  |  |  |  |  |  |  |  |  |
| CC[C@@H](C)NC(=O)[C@H]1C=C2c3cccc4[nH]cc(c34)C[C@H]2N(C)C1 [Int8a] |  | 35.5 | 6.87 |  |  | 104 |  | 72.6 | 93.7 |  |  |  |  |  |  |  |  |  |  |  |  |
